Experiment: Thermogravimetric analysis (thermal stability)
Assay type: physicochemical
Conditions: thermogravimetric profile (FIG. 6)

## benzalkonium chloride
  temperature to which stable / at which decomposition begins (TGA): about 200 °C

From patent publication US20260240166A1, “ANTIMICROBIAL AND ANTIVIRAL, BIOLOGICALLY ACTIVE POLYMER COMPOSITES EFFECTIVE AGAINST SARS-COV-2 AND OTHER VIRAL, BACTERIAL AND FUNGAL TARGETS, AND RELATED METHODS, MATERIALS, COATINGS AND DEVICES” (priority 2019, published 2026)
